Experimental data: patent publication US10633337B2, “Crystal forms of a 9-aminomethyl substituted tetracycline compound and a preparation method thereof” (KBP Biosciences Co., Ltd., priority 2016, dated 2020)

How the values were obtained:
Format in all cases: physicochemical
[1] = Assay 2: stability (influencing factor tests) of crystal form II and crystal form IV; content by HPLC; conditions: for stability (conclusion in words): high temperature, high humidity and illumination
Method: Assay 2: Stability for Crystal Form II and Crystal Form IV of the Present Compound
Tested sample: crystal form II and crystal form IV of the compound represented by formula (1) were prepared according to Examples;
(§1) Test Conditions for Investigating the Influencing Factors:
(§2) High temperature tests: crystal form II and crystal form IV of the compound represented by formula (1) were laid on a dry and clean watch glass, and kept at 60° C.±5° C. for 15 days. Samples were taken respectively on Day 5 and Day 15. The content and the purity of the compound represented by formula (1) were measured, and compared with those of the sample taken on Day 0.
as §2, with “humidity test:” for “temperature tests:”, “25° C.±2° C., RH92.5%±5%, 25° C.±2° C., RH75%±5%, 40° C.±2° C., RH75%±5%” for “60° C.±5° C.”
as §2, with “Illumination test:” for “High temperature tests:”, “an illuminance of 4500 Lx±500 Lx in an illumination box” for “60° C.±5° C.”
(§3) Content: it was measured by using an external standard method in accordance with the High Performance Liquid Chromatography in Chinese Pharmacopoeia, Appendix V D, Edition 2010.
(§4) Purity: it was measured by using an area normalization method in accordance with the High Performance Liquid Chromatography in Chinese Pharmacopoeia, Appendix V D, Edition 2010.

[2] = Assay 1: stability (influencing factor tests: high temperature, high humidity, illumination) of amorphous form and crystal forms I, II, VII; content and purity by HPLC; conditions: for stability (conclusion in words): high temperature, high humidity and illumination
Method: Assay 1: Stability for Amorphous Form and Crystal Forms of the Present Compound
Tested sample: amorphous form, crystal form I, crystal form II, and crystal form VII of the compound represented by formula (1) were prepared according to Examples;
as §1
as §2, with “tests: amorphous form,” for “tests:”, “form I, crystal form II,” for “form II”, “form VII” for “form IV”, “for 14” for “for 15”, “Day 7” for “Day 5”, “Day 14.” for “Day 15.”
(§5) High humidity test: amorphous form, crystal form I, crystal form II, and crystal form VII of the compound represented by formula (1) were laid on a dry and clean watch glass, and kept at 25° C.±2° C., RH75%±5%, 40° C.±2° C., RH75%±5% for 14 days. Samples were taken respectively on Day 7 and Day 14. The content and the purity of the compound represented by formula (1) were measured, and compared with those of the sample taken on Day 0.
as §5, with “Illumination” for “High humidity”, “an illuminance of 4500 Lx±500 Lx in an illumination box” for “25° C.±2° C., RH75%±5%, 40° C.±2° C., RH75%±5%”
as §3, §4

[3] = Investigation of the stability of crystal form III at high humidity
Method: It is also found in the study that not all of crystal forms I, II, III, IV, V, VI, VII and VIII of the compound represented by formula (1) have better stability than the amorphous form. Specifically, in the investigation of the stability of crystal form III, the content of the compound is reduced by about 10% after being placed in a high humidity condition of 40° C./75%±5% RH for 14 days.
The data for investigating the stability was mentioned as above.

[4] = Day 0 (start of stability test)
[5] = High temperature 60° C., Day 14
[6] = Illumination 45001x ± 5001x, Day 14

| Compound | Content ([1]; 25° C./RH 75% ± 5%, Day 15) [%] | Content ([1]; 25° C./RH 92.5% ± 5%, Day 15) [%] | Content ([1]; 40° C./RH 75% ± 5%, Day 15) [%] | Content ([2]; 25° C./75% ± 5% RH, Day 7) [%] | Purity ([2]; 25° C./75% ± 5% RH, Day 7) [%] | Content ([2]; 25° C./75% ± 5% RH, Day 14) [%] | Purity ([2]; 25° C./75% ± 5% RH, Day 14) [%] | Content ([2]; 40° C./75% ± 5% RH, Day 7) [%] | Purity ([2]; 40° C./75% ± 5% RH, Day 7) [%] | Content ([2]; 40° C./75% ± 5% RH, Day 14) [%] | Purity ([2]; 40° C./75% ± 5% RH, Day 14) [%] | Content [2, 4] [%] | Purity [2, 4] [%] | Content ([2]; High temperature 60° C., Day 7) [%] | Purity ([2]; High temperature 60° C., Day 7) [%] | Content [2, 5] [%] | Purity [2, 5] [%] | Content [2, 6] [%] | Purity [2, 6] [%] | stability (conclusion in words) [2] | also measured |
| --- | --- | --- | --- | --- | --- | --- | --- | --- | --- | --- | --- | --- | --- | --- | --- | --- | --- | --- | --- | --- | --- |
| CN(C)c1cc(CN2CC3CC3C2)c(O)c2c1C[C@H]1C[C@H]3[C@H](N(C)C)C(O)=C(C(N)=O)C(=O)[C@@]3(O)C(O)=C1C2=O (single isomer, unassigned) [Crystal form II] | 98.3 | 96.7 | 98.0 | 95.9 | 96.3 | 96.1 | 96.2 | 96.5 | 96.2 | 96.1 | 96.1 | 94.5 | 96.4 | 95.8 | 96.1 | 96.0 | 96.0 | 96.1 | 96.2 | relatively high stability | Content ([1]; 60° C., Day 15): 97.0%; Content ([1]; 4500 Lx ± 500 Lx, Day 15): 97.8%; Content [1, 4]: 98.4%; stability (conclusion in words) [1]: higher stability than crystal form IV |
| CN(C)c1cc(CN2CC3CC3C2)c(O)c2c1C[C@H]1C[C@H]3[C@H](N(C)C)C(O)=C(C(N)=O)C(=O)[C@@]3(O)C(O)=C1C2=O (single isomer, unassigned) [Crystal form IV] | 93.1 | 90.3 | 74.6 | – | – | – | – | – | – | – | – | – | – | – | – | – | – | – | – | – | Content ([1]; 60° C., Day 15): 88.6%; Content ([1]; 4500 Lx ± 500 Lx, Day 15): 74.6%; Content [1, 4]: 97.0%; reduction of content ([1]; high temperature of 60° C. for 15 days): about 10%; stability (conclusion in words) [1]: changed very much; reduction of content ([1]; illumination 4500 Lx±500 Lx for 15 days): 23.1%; stability compared with amorphous form ([1]; illumination condition or high temperature condition): worse stability than the amorphous form |
| CN(C)c1cc(CN2CC3CC3C2)c(O)c2c1C[C@H]1C[C@H]3[C@H](N(C)C)C(O)=C(C(N)=O)C(=O)[C@@]3(O)C(O)=C1C2=O (stereo partly drawn) [Crystal form III, (4S,4aS,5aR,12aS)-9-(3-azabicyclo[3.1.0]hexan-3-ylmethyl)-4,7-bis(dimethylamino)-3,10,12,12a-tetrahydroxy-1,11-dioxo-1,4,4a,5,5a,6,11,12a-octahydrotetracene-2-carboxamide] | – | – | – | – | – | – | – | – | – | – | – | – | – | – | – | – | – | – | – | – | reduction of content ([3]; high humidity 40° C./75%±5% RH for 14 days): about 10%; stability compared with amorphous form ([3]; high humidity condition): worse stability than the amorphous form |

The next lines start with results.

| Content ([1]; 25° C./RH 75% ± 5%, Day 15) [%] | Content ([1]; 25° C./RH 92.5% ± 5%, Day 15) [%] | Content ([1]; 40° C./RH 75% ± 5%, Day 15) [%] | Content ([2]; 25° C./75% ± 5% RH, Day 7) [%] | Purity ([2]; 25° C./75% ± 5% RH, Day 7) [%] | Content ([2]; 25° C./75% ± 5% RH, Day 14) [%] | Purity ([2]; 25° C./75% ± 5% RH, Day 14) [%] | Content ([2]; 40° C./75% ± 5% RH, Day 7) [%] | Purity ([2]; 40° C./75% ± 5% RH, Day 7) [%] | Content ([2]; 40° C./75% ± 5% RH, Day 14) [%] | Purity ([2]; 40° C./75% ± 5% RH, Day 14) [%] | Content [2, 4] [%] | Purity [2, 4] [%] | Content ([2]; High temperature 60° C., Day 7) [%] | Purity ([2]; High temperature 60° C., Day 7) [%] | Content [2, 5] [%] | Purity [2, 5] [%] | Content [2, 6] [%] | Purity [2, 6] [%] | stability (conclusion in words) [2] | Compound | also measured |
| --- | --- | --- | --- | --- | --- | --- | --- | --- | --- | --- | --- | --- | --- | --- | --- | --- | --- | --- | --- | --- | --- |
| – | – | – | 98.7 | 97.1 | 93.3 | 96.7 | 94.7 | 94.9 | 89.6 | 92.9 | 97.1 | 98.0 | 94.5 | 95.8 | 90.5 | 94.3 | 85.0 | 92.9 | unstable | CN(C)c1cc(CN2CC3CC3C2)c(O)c2c1C[C@H]1C[C@H]3[C@H](N(C)C)C(O)=C(C(N)=O)C(=O)[C@@]3(O)C(O)=C1C2=O (stereo partly drawn) [Amorphous form, (4S,4aS,5aR,12aS)-9-(3-azabicyclo[3.1.0]hexan-3-ylmethyl)-4,7-bis(dimethylamino)-3,10,12,12a-tetrahydroxy-1,11-dioxo-1,4,4a,5,5a,6,11,12a-octahydrotetracene-2-carboxamide] | reduction of content ([2]; after 14 days at a high temperature of 60° C.): 6.6%; reduction of content ([2]; after 14 days at high humidity 40° C./75%±5% RH): 7.5%; reduction of content ([2]; after 14 days under illumination of 4500 lx±500 lx): 12.1% |
| – | – | – | 97.2 | 98.1 | 98.2 | 98.1 | 97.4 | 98.0 | 97.5 | 97.8 | 97.0 | 98.2 | 97.7 | 97.9 | 97.3 | 97.7 | 97.8 | 98.1 | relatively high stability | CN(C)c1cc(CN2CC3CC3C2)c(O)c2c1C[C@H]1C[C@H]3[C@H](N(C)C)C(O)=C(C(N)=O)C(=O)[C@@]3(O)C(O)=C1C2=O (stereo partly drawn) [Crystal form I, (4S,4aS,5aR,12aS)-9-(3-azabicyclo[3.1.0]hexan-3-ylmethyl)-4,7-bis(dimethylamino)-3,10,12,12a-tetrahydroxy-1,11-dioxo-1,4,4a,5,5a,6,11,12a-octahydrotetracene-2-carboxamide] | – |
| – | – | – | 96.1 | 97.1 | 95.8 | 97.2 | 94.6 | 96.4 | 94.5 | 95.7 | 95.8 | 97.4 | 95.2 | 96.8 | 93.6 | 96.2 | 95.7 | 96.6 | relatively high stability | CN(C)c1cc(CN2CC3CC3C2)c(O)c2c1C[C@H]1C[C@H]3[C@H](N(C)C)C(O)=C(C(N)=O)C(=O)[C@@]3(O)C(O)=C1C2=O (stereo partly drawn) [Crystal form VII, (4S,4aS,5aR,12aS)-9-(3-azabicyclo[3.1.0]hexan-3-ylmethyl)-4,7-bis(dimethylamino)-3,10,12,12a-tetrahydroxy-1,11-dioxo-1,4,4a,5,5a,6,11,12a-octahydrotetracene-2-carboxamide] | – |
